Measured values from ChEMBL document CHEMBL1201862, “PubChem BioAssay data set” (2004).
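Values below derive from 48-hour exposures of cells grown in 96-well plates, with endpoints linearly interpolated between the two concentrations bracketing the appropriate inhibition level. GI50 marks 50% less growth.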 Calls of active or inactive are those of the source. No stated cut-off is given here; in the data, active = GI50 up to about 1.1 µM and inactive = higher.

What was measured:
Assay in all cases: growth of human tumour cells (NCI), 48 h
SK-MEL-2 = tested on: SK-MEL-2
HT-29 = tested on: HT-29
EKVX = tested on: EKVX
HCC 2998 = tested on: HCC 2998
NCI-H226 = tested on: NCI-H226
ACHN = tested on: ACHN
LXFL 529 = tested on: LXFL 529
SF-539 = tested on: SF-539
CAKI-1 = tested on: CAKI-1
COLO 205 = tested on: COLO 205
RXF 393 = tested on: RXF 393
SK-MEL-5 = tested on: SK-MEL-5
RPMI-8226 = tested on: RPMI-8226
UACC-257 = tested on: UACC-257
SR = tested on: SR
SK-MEL-28 = tested on: SK-MEL-28

Measured: GI50

CNc1nnnn1C1OC(CO)C(O)C1O (centres undefined)
inactive: SK-MEL-2 > 100 µM | HT-29 > 100 µM | EKVX > 100 µM | HCC 2998 > 100 µM | NCI-H226 > 100 µM | ACHN > 100 µM | LXFL 529 > 100 µM | SF-539 > 100 µM | CAKI-1 > 100 µM | COLO 205 > 100 µM | RXF 393 43.9 µM | SK-MEL-5 > 100 µM | RPMI-8226 > 100 µM | UACC-257 > 100 µM

COc1ccccc1-n1c(N)c2c(C)c(-c3ccccc3)[nH]c2nc1=S
inactive: SK-MEL-2 > 100 µM | HCC 2998 > 100 µM | NCI-H226 63 µM | ACHN > 100 µM | SR > 100 µM | LXFL 529 > 100 µM | SK-MEL-28 > 100 µM | SF-539 33.7 µM | CAKI-1 > 100 µM | COLO 205 > 100 µM | SK-MEL-5 4.76 µM | RPMI-8226 50.2 µM | UACC-257 > 100 µM

Cc1ccc(S(=O)(=O)OCC23CCC(CC2)C2CC23)cc1 (centres undefined)
inactive: HT-29 31.5 µM | HCC 2998 > 100 µM | NCI-H226 61.2 µM | ACHN 61.7 µM | SR 30.2 µM | LXFL 529 68.2 µM | SK-MEL-28 96.6 µM | CAKI-1 49.8 µM | COLO 205 61.8 µM | SK-MEL-5 24 µM | RPMI-8226 25.9 µM | UACC-257 28.6 µM

Cc1nc2c(n1Cc1ccc(Cl)cc1)C(=O)c1ccccc1C2=O
inactive: SK-MEL-2 > 75 µM | HT-29 4.08 µM | EKVX > 75 µM | HCC 2998 > 75 µM | NCI-H226 > 75 µM | ACHN 27 µM | SR 1.32 µM | LXFL 529 5.47 µM | SK-MEL-28 > 75 µM | SF-539 2.48 µM | COLO 205 > 75 µM | RXF 393 33.9 µM | SK-MEL-5 16.4 µM | UACC-257 > 75 µM

CCc1cccc(C)c1NC(=O)CC1C(=O)Nc2ccccc2[S+]1[O-] (centres undefined)
inactive: SK-MEL-2 43.5 µM | HT-29 33.4 µM | HCC 2998 56.4 µM | NCI-H226 > 100 µM | ACHN 71.6 µM | SR 34 µM | LXFL 529 66.1 µM | SK-MEL-28 73.1 µM | SF-539 29.2 µM | CAKI-1 53.6 µM | COLO 205 39.2 µM | RPMI-8226 33 µM | UACC-257 31.8 µM

COC(=O)[C@H]1[C@H]2C[C@@H]3c4[nH]c5cc(OC)ccc5c4CCN3C[C@H]2C[C@@H](OC(=O)c2cc(OC)c(OC)c(OC)c2)[C@@H]1OC [RESERPINE]
inactive: SK-MEL-2 19.3 µM | HT-29 12 µM | HCC 2998 27.8 µM | NCI-H226 19.6 µM | ACHN 15 µM | SR 6.12 µM | LXFL 529 14.4 µM | SK-MEL-28 > 10 µM | SF-539 11.6 µM | CAKI-1 18.1 µM | COLO 205 15.7 µM | SK-MEL-5 15.7 µM | RPMI-8226 6.9 µM | UACC-257 15.6 µM

O=C1C(c2ccc([N+](=O)[O-])cc2)=[N+]([O-])c2ccccc21
inactive: SK-MEL-2 > 100 µM | HT-29 37.6 µM | EKVX 32.8 µM | NCI-H226 34.9 µM | ACHN 16.8 µM | SR 23.7 µM | LXFL 529 19.8 µM | SK-MEL-28 29.3 µM | SF-539 37.9 µM | CAKI-1 42.2 µM | COLO 205 11.1 µM | RXF 393 23.3 µM | SK-MEL-5 16.3 µM | RPMI-8226 19 µM

O=C(O)C1=C(C(=O)Nc2ccc(NC(=O)C3=C(C(=O)O)C4C=CC3C4)cc2)C2C=CC1C2
inactive: SK-MEL-2 69.7 µM | HT-29 > 100 µM | EKVX > 100 µM | HCC 2998 > 100 µM | ACHN > 100 µM | SR > 100 µM | LXFL 529 > 100 µM | SK-MEL-28 > 100 µM | SF-539 > 100 µM | CAKI-1 > 100 µM | COLO 205 > 100 µM | RXF 393 > 100 µM | SK-MEL-5 > 100 µM | RPMI-8226 > 100 µM | UACC-257 > 100 µM
